Data reported in the NIST ThermoML archive (doi:10.1021/acs.jced.5b00936).

Assays:
[1] = for viscosity / mass density: 100 kPa, Liquid; for viscosity: Concentric cylinders viscometry; for mass density: Vibrating tube method
[2] = refractive index (Na D-line) (dimensionless); settings: 100 kPa, Liquid, Standard Abbe refractometry

CCCC[N+](CCCC)(CCCC)CCCC.O=S(=O)([O-])CCN(CCO)CCO
Settings	mass density, [1] [kg/m3]	refractive index, [2]	viscosity, [1] [mPa·s]
288.15 K	–	1.49093	–
293.15 K	–	1.48966	–
298.15 K	–	1.48834	–
303.15 K	–	1.48706	–
308.15 K	–	1.48577	–
313.15 K	1052.4	1.48445	12001
318.15 K	1049.6	1.48317	7582.5
323.15 K	1046.8	1.48185	4970.6
328.15 K	1044	1.48052	3346.6
333.15 K	1041.2	1.4792	2305.7
338.15 K	1038.4	1.47784	1621.8
343.15 K	1035.6	1.47646	1163.2
348.15 K	1032.8	1.47502	848.3
353.15 K	1030.1	1.47363	630

C[N+](C)(C)CCO.O=S(=O)([O-])CCN(CCO)CCO
Settings	mass density, [1] [kg/m3]	refractive index, [2]	viscosity, [1] [mPa·s]
293.15 K	1248	–	33236
298.15 K	1244.8	1.50047	20518
303.15 K	1241.8	1.49937	13056
308.15 K	1238.9	1.49826	8631.6
313.15 K	1236.1	1.49716	5848.4
318.15 K	1233.3	1.49602	4045.8
323.15 K	1230.5	1.49476	2861
328.15 K	1227.7	1.49317	2061.7
333.15 K	1224.9	1.49148	1526.8
338.15 K	1222.2	1.49052	1136.6
343.15 K	1219.5	1.48921	858.1
348.15 K	1216.8	1.48749	658.8
353.15 K	1214.1	1.48633	512.7

CCCC[N+](CCCC)(CCCC)CCCC.O=S(=O)([O-])CC(O)CNC(CO)(CO)CO
Settings	Triple point temperature [K]
[1], Crystal, DSC	364.15

CCCC[N+](CCCC)(CCCC)CCCC.O=S(=O)([O-])CC(O)CN1CCOCC1 [tetrabutylammonium 2-hydroxy-3-morpholinopropanesulfonate]
Settings	mass density, [1] [kg/m3]	refractive index, [2]	viscosity, [1] [mPa·s]
308.15 K	1051.2	1.48328	34148
313.15 K	1048.2	1.48188	18392
318.15 K	1045.3	1.48038	10603
323.15 K	1042.3	1.47873	6381.1
328.15 K	1039.4	1.47693	3976.3
333.15 K	1035.8	1.47525	2571.7
338.15 K	1033.1	1.47377	1702.9
343.15 K	1030.4	1.47242	1158.3
348.15 K	1027.6	1.47111	807.1
353.15 K	1024.7	1.46984	574.9

CCCC[P+](CCCC)(CCCC)CCCC.O=S(=O)([O-])CC(O)CNC1CCCCC1
Settings	mass density, [1] [kg/m3]	refractive index, [2]	viscosity, [1] [mPa·s]
288.15 K	1037.4	1.49654	32956
293.15 K	1034.2	1.49497	17587
298.15 K	1031.1	1.49313	10098
303.15 K	1028.2	1.49162	6481.6
308.15 K	1025.1	1.48983	3796
313.15 K	1022.1	1.48782	2441.9
318.15 K	1019	1.48724	1624.2
323.15 K	1016	1.48547	1109.7
328.15 K	1012.9	1.48368	779.6
333.15 K	1009.8	1.48202	558.2
338.15 K	1006.8	1.48045	409
343.15 K	1003.8	1.47902	304.6
348.15 K	1000.9	1.47764	231
353.15 K	997.9	1.4763	177.9
